Earlier results as cited in US4960596A (Ethypharm, priority 1987, dated 1990).
Counter-ions that a name gives are not always drawn.

Tests used:
[1] = literature
[2] = tested on: special channels to be found in the membranes of a variety of cells (calcium)
[3] = tested on: heart muscle
[4] = tested on: smooth muscle
[5] = tested on: sodium-potassium pump; settings: smooth muscle cells and other types of cell

In the case of `COc1ccc(C2Sc3ccccc3N(CCN(C)C)C(=O)C2OC(C)=O)cc1` (stereo not drawn) [Diltiazem, Diltiazem hydrochloride], the half life [1] is given as “four hours to seven hours”, the calcium inflow [2] is given as “inhibit the inflow of calcium” and the “heart pacemaker activity and auriculo-ventricular node conduction” value [3] is given as “depressive effective on heart pacemaker activity and on auriculo-ventricular node conduction resulting in a negative chronotropic effect”. For the same compound, the inotropic effect [3] was “weak negative inotropic effect on the heart muscle”, the “effect on smooth muscle” value [4] was “vasodilatation of smooth muscle” and the intra-cellular sodium [5] was “reduces intra-cellular sodium by stimulating the sodium-potassium pump”.
